Columns and labels:
[1] = Surface tension of aqueous bicarbonate spray solution (Kruss DSA30); type: physicochemical; conditions: aqueous solutions at typical in-use concentrations (2-5% active ingredient)
Experimental: (§1) In this application surface tension and contact angle were measured using a Kruss DSA30 system, […] was measured using a pendant drop technique with analysis carried out after application of the Laplace-Young equation, […] was measured following application of a droplet on to an artificial hydrophobic (Para-film) surface. The particle sizes of the crystals of the bicarbonate salt were determined by microscopy following the application of Motic Advanced Imaging Software.

[2] = Contact angle of aqueous bicarbonate spray solution (Kruss DSA30, hydrophobic Para-film surface); type: physicochemical; conditions: aqueous solutions at typical in-use concentrations (2-5% active ingredient)
Experimental: as §1

Compound: O=C([O-])O.[K+] [potassium bicarbonate]
- Surface tension compared with water [1]: virtually identical to that achieved with water alone
- Contact angle with the plant tissues compared with water [2]: virtually identical to that achieved with water alone
